Test: Example 3 plasma pharmacokinetics, normal hepatic function vs hepatic impairment
Details: for AUC(0-t) / AUC(0-inf) / Cmax / Tmax / half-life: both, human, 160 mg
[1] = hepatic impairment, single intranasal 160 mg cocaine HCl, plasma
[2] = normal hepatic function, single intranasal 160 mg cocaine HCl, plasma

In the case of `COC(=O)[C@H]1[C@@H](OC(=O)c2ccccc2)C[C@@H]2CC[C@H]1N2C` [Cocaine, cocaine, reference compound], the AUC(0-t) (plasma, inhaled or intranasal, AUC0→t (Mean), hepatic impairment, single intranasal 160 mg cocaine HCl) is reported as 223 ng·h/mL, the AUC(0-t) (plasma, inhaled or intranasal, AUC0→t (Mean), normal hepatic function, single intranasal 160 mg cocaine HCl) is reported as 92.8 ng·h/mL and the AUC(0-t) (plasma, inhaled or intranasal, AUC0→t (Median), hepatic impairment, single intranasal 160 mg cocaine HCl) is reported as 176 ng·h/mL. For the same compound, the AUC(0-t) (plasma, inhaled or intranasal, AUC0→t (Median), normal hepatic function, single intranasal 160 mg cocaine HCl) was 82.4 ng·h/mL, the AUC(0-inf) (plasma, inhaled or intranasal, AUC0→∞ (Geometric mean), hepatic impairment, single intranasal 160 mg cocaine HCl) was 192 ng·h/mL and the AUC(0-inf) (plasma, inhaled or intranasal, AUC0→∞ (Geometric mean), normal hepatic function, single intranasal 160 mg cocaine HCl) was 82.4 ng·h/mL. The AUC(0-inf) (plasma, inhaled or intranasal, AUC0→∞ (Mean), hepatic impairment, single intranasal 160 mg cocaine HCl) was 227 ng·h/mL, the AUC(0-inf) (plasma, inhaled or intranasal, AUC0→∞ (Mean), normal hepatic function, single intranasal 160 mg cocaine HCl) was 95.3 ng·h/mL and the AUC(0-inf) (plasma, inhaled or intranasal, AUC0→∞ (Median), hepatic impairment, single intranasal 160 mg cocaine HCl) was 177 ng·h/mL. It also gave an AUC(0-inf) (plasma, inhaled or intranasal, AUC0→∞ (Median), normal hepatic function, single intranasal 160 mg cocaine HCl) of 83.3 ng·h/mL, a Cmax (plasma, inhaled or intranasal, Cmax (Geometric mean), hepatic impairment, single intranasal 160 mg cocaine HCl) of 41.2 ng/mL and a Cmax (plasma, inhaled or intranasal, Cmax (Geometric mean), normal hepatic function, single intranasal 160 mg cocaine HCl) of 44.2 ng/mL. For the same compound, the Cmax (plasma, inhaled or intranasal, Cmax (Mean), hepatic impairment, single intranasal 160 mg cocaine HCl) was 50.7 ng/mL, the Cmax (plasma, inhaled or intranasal, Cmax (Mean), normal hepatic function, single intranasal 160 mg cocaine HCl) was 50.6 ng/mL and the Cmax (plasma, inhaled or intranasal, Cmax (Median), hepatic impairment, single intranasal 160 mg cocaine HCl) was 42.6 ng/mL. For the same compound, the Cmax (plasma, inhaled or intranasal, Cmax (Median), normal hepatic function, single intranasal 160 mg cocaine HCl) was 53.6 ng/mL, the Tmax (plasma, inhaled or intranasal, Tmax (Geometric mean), hepatic impairment, single intranasal 160 mg cocaine HCl) was 49.7 min and the Tmax (plasma, inhaled or intranasal, Tmax (Geometric mean), normal hepatic function, single intranasal 160 mg cocaine HCl) was 25.3 min. The Tmax (plasma, inhaled or intranasal, Tmax (Mean), hepatic impairment, single intranasal 160 mg cocaine HCl) was 65.4 min, the Tmax (plasma, inhaled or intranasal, Tmax (Mean), normal hepatic function, single intranasal 160 mg cocaine HCl) was 25.9 min and the Tmax (plasma, inhaled or intranasal, Tmax (Median), hepatic impairment, single intranasal 160 mg cocaine HCl) was 45 min. For the same compound, the Tmax (plasma, inhaled or intranasal, Tmax (Median), normal hepatic function, single intranasal 160 mg cocaine HCl) was 30 min, the half-life (plasma, inhaled or intranasal, t1/2 (Geometric mean), hepatic impairment, single intranasal 160 mg cocaine HCl) was 299 min and the half-life (plasma, inhaled or intranasal, t1/2 (Geometric mean), normal hepatic function, single intranasal 160 mg cocaine HCl) was 397 min. For the same compound, the half-life (plasma, inhaled or intranasal, t1/2 (Mean), hepatic impairment, single intranasal 160 mg cocaine HCl) was 325 min, the half-life (plasma, inhaled or intranasal, t1/2 (Mean), normal hepatic function, single intranasal 160 mg cocaine HCl) was 487 min and the half-life (plasma, inhaled or intranasal, t1/2 (Median), hepatic impairment, single intranasal 160 mg cocaine HCl) was 338 min. For the same compound, the half-life (plasma, inhaled or intranasal, t1/2 (Median), normal hepatic function, single intranasal 160 mg cocaine HCl) was 416 min, the AUC(0-inf) (plasma, other: intranasal (drug-soaked pledgets in the nasal cavity), AUCinf, range observed, hepatically impaired patients) was 88 to 366 ng·h/mL and the AUC(0-t) (plasma, other: intranasal (drug-soaked pledgets in the nasal cavity), AUClast (Geometric Least Squares Mean, ANOVA), Grade B hepatic impairment) was 225 ng·h/mL. For the same compound, the AUC(0-t) (plasma, other: intranasal (drug-soaked pledgets in the nasal cavity), AUClast (Geometric Least Squares Mean, ANOVA), Grade C hepatic impairment) was 142 ng·h/mL, the AUC(0-t) (plasma, other: intranasal (drug-soaked pledgets in the nasal cavity), AUClast (Geometric Least Squares Mean, ANOVA), Normal hepatic function) was 79.2 ng·h/mL and the Cmax (plasma, other: intranasal (drug-soaked pledgets in the nasal cavity), Cmax (Geometric Least Squares Mean, ANOVA), Grade B hepatic impairment, excludes one subject with anomalous concentration at 7 minutes) was 46.4 ng/mL. It also gave a Cmax (plasma, other: intranasal (drug-soaked pledgets in the nasal cavity), Cmax (Geometric Least Squares Mean, ANOVA), Grade C hepatic impairment) of 30.1 ng/mL, a Cmax (plasma, other: intranasal (drug-soaked pledgets in the nasal cavity), Cmax (Geometric Least Squares Mean, ANOVA), Normal hepatic function) of 44.2 ng/mL and a Cmax (plasma, other: intranasal (drug-soaked pledgets in the nasal cavity), Cmax, range observed, hepatically impaired patients) of 16.2 to 85.2 ng/mL. For the same compound, the Tmax (plasma, other: intranasal (drug-soaked pledgets in the nasal cavity), Tmax (approximate), normal hepatic function, plasma) was about 30 min, the Tmax (plasma, other: intranasal (drug-soaked pledgets in the nasal cavity), Tmax, range observed, hepatically impaired patients) was 18.4 to 112 min and the “plasma exposure after Tmax, times higher than normal hepatic function” value (hepatic impairment group) was “about 2.5 times”. The “AUC0→t (Max)” value [1] was 523 ng·h/mL, the “AUC0→t (Min)” value [1] was 89.5 ng·h/mL and the “AUC0→∞ (Max)” value [1] was 528 ng·h/mL. For the same compound, the “AUC0→∞ (Min)” value [1] was 90.9 ng·h/mL, the “Clast (Geometric mean)” value [1] was 0.270 ng/mL and the “Clast (Max)” value [1] was 1.73 ng/mL. The “Clast (Mean)” value [1] was 0.393 ng/mL, the “Clast (Median)” value [1] was 0.211 ng/mL and the “Clast (Min)” value [1] was 0.115 ng/mL. For the same compound, the “Cmax (Max)” value [1] was 119 ng/mL, the “Cmax (Min)” value [1] was 17.1 ng/mL and the “Tlast (Geometric mean)” value [1] was 31.6 h. For the same compound, the “Tlast (Max)” value [1] was 32.0 h, the “Tlast (Mean)” value [1] was 31.6 h and the “Tlast (Median)” value [1] was 32.0 h. For the same compound, the “Tlast (Min)” value [1] was 1680 min, the “Tmax (Max)” value [1] was 3.00 h and the “Tmax (Min)” value [1] was 7.02 min. The “t1/2 (Geometric mean)” value [1] was 4.94 h, the “t1/2 (Max)” value [1] was 9.86 h and the “t1/2 (Min)” value [1] was 87.6 min. For the same compound, the “AUC0→t (Max)” value [2] was 235 ng·h/mL, the “AUC0→t (Min)” value [2] was 20.0 ng·h/mL and the “AUC0→∞ (Max)” value [2] was 237 ng·h/mL. The “AUC0→∞ (Min)” value [2] was 21.7 ng·h/mL, the “Clast (Geometric mean)” value [2] was 0.188 ng/mL and the “Clast (Max)” value [2] was 0.405 ng/mL. The “Clast (Mean)” value [2] was 0.210 ng/mL, the “Clast (Median)” value [2] was 0.160 ng/mL and the “Clast (Min)” value [2] was 0.102 ng/mL. For the same compound, the “Cmax (Max)” value [2] was 75.2 ng/mL, the “Cmax (Min)” value [2] was 7.64 ng/mL and the “Tlast (Geometric mean)” value [2] was 24.7 h. For the same compound, the “Tlast (Max)” value [2] was 32.0 h, the “Tlast (Mean)” value [2] was 26.0 h and the “Tlast (Median)” value [2] was 28.0 h. For the same compound, the “Tlast (Min)” value [2] was 720 min, the “t1/2 (Max)” value [2] was 22.5 h and the “t1/2 (Min)” value [2] was 110 min.

Source: patent publication US10413505B1, “Pharmaceutical compositions and methods of using the same” (priority 2017, dated 2019)
